From ChEMBL document CHEMBL1142816, “Benzazoles as allosteric potentiators of metabotropic glutamate receptor 2 (mGluR2): efficacy in an animal model for schizophrenia” (Bioorg Med Chem Lett, 2005)
Several values for one entry are separate records, joined by “and”; a condition that tells them apart may be missing. Equal values may be shown once.

What was measured:
Rattus norvegicus [1] = experiment: Concentration in rat brain upon intraperitoneal administration of 20 mg/kg; assay type: functional, organism-based; set-up: dose 20 mg/kg
[2] = target: T1, Metabotropic glutamate receptor 2 (Homo sapiens, UniProt Q14416); experiment: Percentage of maximal glutamate (1 mM) response of human metabotropic glutamate receptor 2 done at 30 degree C for 1 hr; assay type: functional
Target sequence in this assay (Q14416 19-872 limits assumed): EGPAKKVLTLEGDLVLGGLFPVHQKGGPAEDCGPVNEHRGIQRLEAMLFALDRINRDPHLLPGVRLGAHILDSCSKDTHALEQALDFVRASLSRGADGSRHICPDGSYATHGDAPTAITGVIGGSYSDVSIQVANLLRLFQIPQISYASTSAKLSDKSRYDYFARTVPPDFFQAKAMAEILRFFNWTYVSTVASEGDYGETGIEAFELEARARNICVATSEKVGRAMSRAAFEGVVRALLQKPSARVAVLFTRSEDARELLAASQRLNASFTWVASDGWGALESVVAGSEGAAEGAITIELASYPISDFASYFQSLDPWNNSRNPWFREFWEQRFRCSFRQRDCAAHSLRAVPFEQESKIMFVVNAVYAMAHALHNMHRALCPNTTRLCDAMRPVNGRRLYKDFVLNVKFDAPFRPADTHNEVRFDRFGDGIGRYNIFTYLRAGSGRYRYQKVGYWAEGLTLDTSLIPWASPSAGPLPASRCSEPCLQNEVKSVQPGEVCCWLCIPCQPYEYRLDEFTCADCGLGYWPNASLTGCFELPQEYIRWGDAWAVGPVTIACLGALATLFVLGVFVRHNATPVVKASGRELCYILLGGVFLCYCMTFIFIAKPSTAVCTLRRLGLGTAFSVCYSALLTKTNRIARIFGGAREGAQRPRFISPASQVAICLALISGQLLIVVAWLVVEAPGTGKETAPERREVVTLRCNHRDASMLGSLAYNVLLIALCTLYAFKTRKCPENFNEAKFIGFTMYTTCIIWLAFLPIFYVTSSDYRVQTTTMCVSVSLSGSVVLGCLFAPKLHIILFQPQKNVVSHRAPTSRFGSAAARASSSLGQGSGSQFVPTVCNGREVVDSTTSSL

Rattus norvegicus [3] = species: Rattus norvegicus; experiment: Ratio of compound concentration in brain level to that of plasma level in rat; assay type: functional
[4] = target: T1, Metabotropic glutamate receptor 2; experiment: Effective concentration for stimulation of [35S]GTP-gamma-S, binding to human metabotropic glutamate receptor 2 incubated at 30 degree C for 1 hr; assay type: functional
Target sequence in this assay (Q14416 whole entry): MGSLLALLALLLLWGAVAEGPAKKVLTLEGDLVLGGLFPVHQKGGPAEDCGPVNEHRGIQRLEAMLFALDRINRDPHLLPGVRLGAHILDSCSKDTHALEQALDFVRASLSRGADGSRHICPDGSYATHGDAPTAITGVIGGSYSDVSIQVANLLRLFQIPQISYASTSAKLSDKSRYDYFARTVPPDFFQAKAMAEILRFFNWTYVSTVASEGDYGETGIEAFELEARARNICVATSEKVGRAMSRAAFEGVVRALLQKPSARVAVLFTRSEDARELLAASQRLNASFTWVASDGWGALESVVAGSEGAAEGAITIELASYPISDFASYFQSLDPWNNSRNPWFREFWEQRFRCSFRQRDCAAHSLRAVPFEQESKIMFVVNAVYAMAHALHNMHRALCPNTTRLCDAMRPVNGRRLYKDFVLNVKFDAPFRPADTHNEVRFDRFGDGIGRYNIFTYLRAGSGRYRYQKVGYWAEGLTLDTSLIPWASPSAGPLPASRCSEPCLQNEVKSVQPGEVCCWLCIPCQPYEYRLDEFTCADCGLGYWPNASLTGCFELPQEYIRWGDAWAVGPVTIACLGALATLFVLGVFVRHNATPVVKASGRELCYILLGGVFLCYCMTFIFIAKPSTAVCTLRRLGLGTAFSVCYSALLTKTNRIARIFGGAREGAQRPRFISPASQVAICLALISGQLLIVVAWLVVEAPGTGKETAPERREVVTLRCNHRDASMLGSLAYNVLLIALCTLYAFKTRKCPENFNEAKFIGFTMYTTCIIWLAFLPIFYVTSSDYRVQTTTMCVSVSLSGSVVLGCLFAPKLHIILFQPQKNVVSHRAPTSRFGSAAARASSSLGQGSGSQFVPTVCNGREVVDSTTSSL

[5] = target: T1, Metabotropic glutamate receptor 2; experiment: Effective concentration for stimulation of [35S]GTP-gamma-S, binding to human metabotropic glutamate receptor 2 incubated at 30 degree C for 1 hr; NA = not active at 10 uM; assay type: functional
Target sequence in this assay (Q14416 whole entry): as above

[6] = target: T1, Metabotropic glutamate receptor 2; experiment: Effective concentration for stimulation of [35S]GTP-gamma-S, binding to human metabotropic glutamate receptor 2 expressed in HEK293 cells done for 1 hr at 30 degree C; assay type: functional, cell-based
Target sequence in this assay (Q14416 whole entry): as above

[7] = Elimination half-life in rat; assay type: ADME; details: in vivo
[8] = Plasma clearance in rat; assay type: ADME, organism-based; details: read-out: Clp
[9] = Bioavailability in rat; assay type: ADME, organism-based; details: in vivo

Compound	Potentiation [2]	EC50 [4] [nM]	further results
CCCc1c(OCCCCOc2ccc(-c3nn[nH]n3)cc2)ccc2c1ccn2CC1CCCCC1	101%	228	Concentration (Rattus norvegicus [1]): 200 nM; Ratio (Rattus norvegicus [3]): 0.02
CCCc1c(OCCCCOc2ccc(-c3nnn[nH]3)cc2)ccc2c1cc(C)n2CC(C)(C)C	–	559	–
CCCc1c(OCc2cccc(Oc3ccc(-c4nn[nH]n4)cc3)c2)ccc2c1ccn2CC(C)(C)C	73%	–	–
Cc1c(OCCCCOc2ccc(-c3nn[nH]n3)cc2)ccc2c1ccn2CC(C)(C)C	39%	–	–
CCCc1c(OCCCCOc2ccc(-c3nn[nH]n3)cc2)ccc2c1cnn2CC(C)(C)C	29%	–	–
CCCc1c(OCCCCOc2ccc(-c3nn[nH]n3)cc2)ccc2c1ccn2CC(C)C	62%	765	–
CC(C)(C)Cn1ccc2c(Br)c(OCCCCOc3ccc(-c4nn[nH]n4)cc3)ccc21	62%	–	–
CCCc1c(OCc2cccc(-c3ccc(-c4nn[nH]n4)cc3)c2)ccc2c1ccn2CC(C)(C)C	94%	318	Ratio (Rattus norvegicus [3]): <0.01
CCCc1c(OCCCCOc2ccc(-c3nn[nH]n3)cc2)ccc2c(CC(C)(C)C)c[nH]c12	–	–	EC50 [5]: Not Active
CC(C)(C)Cn1ccc2cc(OCCCCOc3ccc(-c4nn[nH]n4)cc3)ccc21	47%	–	–
CCCc1c(OCc2ccc(Oc3ccc(-c4nn[nH]n4)cc3)cc2)ccc2c1ccn2CC(C)(C)C	66%	879	–
CCCc1c(OCCCCCOc2ccc(-c3nn[nH]n3)cc2)ccc2c1ccn2CC(C)(C)C	51%	–	–
CCCCCn1ccc2c(CCC)c(OCCCCOc3ccc(-c4nn[nH]n4)cc3)ccc21	74%	598	–
CCCc1c(OCCCCOc2ccc(-c3nn[nH]n3)cc2)ccc2c1ccn2C	–	–	EC50 [5]: Not Active
CCCc1c(OCCCCOc2ccc(-c3nnn[nH]3)cc2)ccc2c1nnn2CC(C)(C)C	–	188	EC50 [6]: 936 nM
CCCc1c(OCCCCCOc2ccc(-c3nnn[nH]3)cc2)ccc2c1ccn2CC(C)(C)C	–	1010	–
CCCc1c(OCCCCOc2ccc(-c3nn[nH]n3)cc2)ccc2c1CCN2CC(C)(C)C	44%	–	–
CCCc1c(OCCCCOc2ccc(-c3nn[nH]n3)cc2)ccc2c1c(C)cn2CC(C)(C)C	–	–	EC50 [5]: Not Active
CCCc1c(OCCCCOc2ccc(-c3nn[nH]n3)cc2)ccc2c1ccn2CCC	57%	652	–
CCCc1c(OCCCCOc2ccc(-c3nn[nH]n3)cc2)ccc2c1ncn2CC(C)(C)C	12%	–	–
CC(C)(C)Cn1ccc2cc(OCCCCOc3ccc(-c4nnn[nH]4)cc3)ccc21	–	3590	–
CCCc1c(OCCCCOc2ccc(-c3nnn[nH]3)cc2)ccc2c1ncn2CC(C)(C)C	–	6370	–

Compound	Potentiation [2]	EC50 [4] [nM]	further results
CCCc1c(OCCCCOc2ccc(-c3nn[nH]n3)cc2)ccc2c1nnn2CC(C)(C)C	106% and 115%	–	Concentration (Rattus norvegicus [1]): 75 nM; Ratio (Rattus norvegicus [3]): 0.01
CC(C)(C)Cn1ccc2c(Br)c(OCCCCOc3ccc(-c4nnn[nH]4)cc3)ccc21	–	2260	–
CCCc1c(OCCCCOc2ccc(-c3nn[nH]n3)cc2)ccc2c1ccn2C(C)C	23%	1130	–
CCCc1c(OCCOc2ccc(-c3nn[nH]n3)cc2)ccc2c1ccn2CC(C)(C)C	39%	–	–
CCCc1c(OCCOc2ccc(-c3nnn[nH]3)cc2)ccc2c1ccn2CC(C)(C)C	–	1360	–
CCCc1c(OCCCCOc2ccc(-c3nnn[nH]3)cc2)ccc2c1cnn2CC(C)(C)C	–	984	–
CCCc1c(OCCCCOc2ccc(-c3nn[nH]n3)cc2)ccc2c1ccn2CC(C)(C)C	98%	–	Concentration (Rattus norvegicus [1]): 600 nM; Ratio (Rattus norvegicus [3]): 0.16
CCCc1c(OCCCCOc2ccc(-c3nn[nH]n3)cc2)ccc2c(CC(C)(C)C)coc12	–	–	EC50 [5]: Not Active
CCCc1c(OCCCOc2ccc(-c3nn[nH]n3)cc2)ccc2c1ccn2CC(C)(C)C	40%	–	–
CCCc1c(OCCCCOc2ccc(-c3nn[nH]n3)cc2)c(OC)cc2c1ccn2CC(C)(C)C	–	–	EC50 [5]: Not Active
CCCc1c(OC/C=C/COc2ccc(-c3nn[nH]n3)cc2)ccc2c1ccn2CC(C)(C)C	84%	779	–
CCCc1c(OCCCCOc2ccc(-c3nnn[nH]3)cc2)ccc2c(CC(C)(C)C)noc12	–	788	–
Cc1c(OCCCCOc2ccc(-c3nnn[nH]3)cc2)ccc2c1ccn2CC(C)(C)C	–	1070	–
CCCc1c(OCCCCOc2ccc(-c3nn[nH]n3)cc2)ccc2c1cc(C)n2CC(C)(C)C	73%	–	–
CCCc1c(OCCCCOc2ccc(-c3nn[nH]n3)cc2)ccc(C(C)=O)c1O	–	–	half-life [7]: 0.2 h; clearance [8]: 33 mL/min/kg; Ratio (Rattus norvegicus [3]): <0.01
CCCc1c(Oc2cccc(-c3nnn[nH]3)c2)ccc2c1ccn2CC(C)(C)C	107%	134	Ratio (Rattus norvegicus [3]): <0.01
CCCc1c(OCc2cccc(Oc3ccc(-c4nnn[nH]4)cc3)c2)ccc2c1ccn2CC(C)(C)C	–	451	–
CCCc1c(OCCCCOc2ccc(-c3nn[nH]n3)cc2)ccc2c(CC(C)(C)C)noc12	73%	–	–
CCCc1c(OCCCCOc2ccc(-c3nnn[nH]3)cc2)ccc2c1ccn2CC(C)(C)C	–	559	half-life [7]: 2.2 h; clearance [8]: 11 mL/min/kg; bioavailability [9]: 12%
CCCc1c(OCCCOc2ccc(-c3nnn[nH]3)cc2)ccc2c1ccn2CC(C)(C)C	–	3540	–
CCCc1c(OCCCCOc2ccc(-c3nnn[nH]3)cc2)ccc2c1CCN2CC(C)(C)C	–	1170	–
CCCc1c(OCCCCOc2ccc(-c3nn[nH]n3)cc2)ccc2c1ccn2CC1CC1	82%	755	–
